Drawing on patent US20260034094A1, “COMPOSITIONS AND METHODS FOR INDUCING FERROPTOSIS” (Kojin Therapeutics, Inc., priority 2022, published 2026), this text covers IC50 and EC50 for 21 compounds.

Molecules are shown by their SMILES. Where “and” joins values, the source holds several entries; their conditions need not be identical. Equal entries are not always repeated. Where two headings read alike, the source gives them in different places. Bounds are passed on as bounds.

The target in one experiment is human recombinant GCL (Homo sapiens (Human), UniProt P48506). Briefly: GCL enzyme profiling assay (ADP-Glo luminescence). The experiment is classed as biochemical. The conditions noted are these: human recombinant GCL 5 nM, 1 h preincubation with ATP. Here is the method: The GCL enzyme assay was run in 50 mM HEPES, pH 7.5, containing 150 mM NaCl, 30 mM MgCl2, 0.5 mM EDTA, 1 mM DTT, 0.1 mg/mL BSA, and 0.02% or in the present case 0.2% F-127 in a total assay volume of 10 μL or 10 mL. Compound in pure DMSO was stamped in assay plates (Greiner black 384-well) or appropriate containers using a D300e digital dispenser (TECAN) and the final DMSO concentration was normalized to 1%. A 5 mL, or in the present case, 5 μL mixture of human recombinant GCL (final concentration: 5 nM) and ATP (final concentration: 0.6 mM) was added and the solution was incubated at room temperature (22° C.) for 1 h. The GCL enzyme reaction was initiated by addition of a 5 μL mixture of mono g-glutamate or in the present example, monosodium glutamate (final concentration: 1 mM) and a-aminobutyrate or α-aminobutyrate (final concentration: 1.2 mM). The reaction was stopped after 1 h or in the present case, 2 h by addition of 5 mL, or in the present case, 5 μL ADP GLO Reagent (Promega). The resulting solution was incubated for 2 h at room temperature. This was then followed by addition of 5 mL, or in the present case, 5 μL ADP GLO Detection. After incubation at room temperature for 30 min, the plates were read on a plate reader (PheraStar) using a luminescence protocol to quantify the GCL enzyme activity from each reaction solution. The data was analyzed using a four-parameter logistic equation to calculate IC50.
Sequence of human recombinant GCL (P48506 whole entry): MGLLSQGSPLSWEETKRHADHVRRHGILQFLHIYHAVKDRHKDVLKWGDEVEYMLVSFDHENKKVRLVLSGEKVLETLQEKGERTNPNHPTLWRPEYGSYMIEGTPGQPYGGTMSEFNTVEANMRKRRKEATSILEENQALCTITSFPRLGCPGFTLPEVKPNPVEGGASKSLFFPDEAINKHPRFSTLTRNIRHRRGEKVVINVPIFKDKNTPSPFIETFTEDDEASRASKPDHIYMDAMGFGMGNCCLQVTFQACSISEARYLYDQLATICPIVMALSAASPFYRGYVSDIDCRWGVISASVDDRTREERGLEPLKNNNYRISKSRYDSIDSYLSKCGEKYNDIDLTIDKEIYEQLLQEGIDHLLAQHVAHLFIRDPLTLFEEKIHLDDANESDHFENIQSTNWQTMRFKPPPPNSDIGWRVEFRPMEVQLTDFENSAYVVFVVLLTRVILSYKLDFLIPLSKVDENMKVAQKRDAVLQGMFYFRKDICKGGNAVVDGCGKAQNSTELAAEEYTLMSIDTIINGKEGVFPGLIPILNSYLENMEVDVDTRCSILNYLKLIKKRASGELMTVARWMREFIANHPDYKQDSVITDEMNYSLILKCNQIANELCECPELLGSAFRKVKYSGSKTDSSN

The subject of the next experiment is RKN cells. Description: RKN cell profiling assay (cell viability, CellTiter-Glo). The conditions noted are these: 96 h, 96 h exposure, read-out: Cell Killing EC50. The experiment is classed as cell-based. The essentials: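 Viability read by CellTiter-Glo luminescence after 96 h compound exposure (0.5% DMSO final) of cells plated at 1,000/well in 10% FBS F-12 and allowed 24 h attachment. Four-parameter fits gave EC50; rescue arms used ferrostatin-1, 1.5 μM, present from seeding.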

For `CC(C)(CCS(=N)(=O)CC[C@H](N)C(=O)O)c1ccc(F)cc1` (stereo partly shown) [Compound 58], on human recombinant GCL (read-out: GCL IC50), the 50% inhibitory concentration (IC50) lay in the range of 0.02 to 2 mM. The EC50 with RKN cells is not below 1000 µM.

In the case of `CC(C)(CCS(=N)(=O)CC[C@H](N)C(=O)O)c1ccccc1F` (stereo partly shown) [Compound 59], at human recombinant GCL (read-out: GCL IC50), the IC50 is not above 0.02 mM. In addition, the concentration giving a half-maximal response (EC50) with RKN cells was less than 1000 µM.

With `N=[S@](=O)(CC[C@H](c1ccccc1)C(F)(F)F)CC[C@H](N)C(=O)O` [Compound 60], at human recombinant GCL (read-out: GCL IC50), the IC50 is not above 0.02 mM. Further, the EC50 with RKN cells is less than 1000 µM.

As to `N=[S@@](=O)(CC[C@H](N)C(=O)O)CC[C@@H](c1ccccc1)C(F)(F)F` [Compound 61], the IC50 on human recombinant GCL (read-out: GCL IC50) is not above 0.02 mM. For the same compound, the EC50 in the experiment with RKN cells was less than 1000 µM.

As to `N=S(=O)(CC[C@H](N)C(=O)O)CCC1(c2ccccc2)CCC1` (stereo partly shown) [Compound 62], at human recombinant GCL (read-out: GCL IC50), the IC50 is not above 0.02 mM. The EC50 with RKN cells was less than 1000 µM.

Turning to `CC(C)(CCS(=N)(=O)CC[C@H](N)C(=O)O)c1cnoc1` (stereo partly shown) [Compound 63], the IC50 on human recombinant GCL (read-out: GCL IC50) was in the range of 0.02 to 2 mM. Besides, the EC50 in the experiment with RKN cells is not below 1000 µM.

For `N=S(=O)(CCC(c1c[nH]c2ccccc12)C(F)(F)F)CC[C@H](N)C(=O)O` (stereo partly shown) [Compound 64], at human recombinant GCL (read-out: GCL IC50), the IC50 is not above 0.02 mM. In addition, the EC50 in the experiment with RKN cells was less than 1000 µM.

For the compound `CC(C)(CCS(=N)(=O)CC[C@H](N)C(=O)O)Cc1ccccc1` (stereo partly shown) [Compound 65], the IC50 on human recombinant GCL (read-out: GCL IC50) is not above 0.02 mM. Moreover, in the experiment on RKN cells, the EC50 is not below 1000 µM.

Turning to `CC(C)(CCS(=N)(=O)CC[C@H](N)C(=O)O)c1ccccc1Cl` (stereo partly shown) [Compound 66], the IC50 at human recombinant GCL (read-out: GCL IC50) lay within 0.02 to 2 mM. Besides, the EC50 in the experiment on RKN cells was not below 1000 µM.

Take `COC(=O)[C@@H](N)CCS(=N)(=O)CCc1cnccn1` (stereo partly drawn) [Compound 67, (2S)-methyl 2-amino-4-(2-(pyrazin-2-yl)ethylsulfonimidoyl)butanoate]: the IC50 on human recombinant GCL (read-out: GCL IC50) is more than 2 mM. Moreover, the EC50 in the experiment on RKN cells was not below 1000 µM.

As to `COC(=O)[C@@H](N)CCS(=N)(=O)CCc1ccccc1` (stereo partly drawn) [Compound 68, (2S)-methyl 2-amino-4-(2-phenylethylsulfonimidoyl)butanoate], the IC50 at human recombinant GCL (read-out: GCL IC50) fell in the range of 0.02 to 2 mM. Moreover, in the experiment with RKN cells, the EC50 is not below 1000 µM.

With `COC(=O)[C@@H](N)CCS(=N)(=O)CCc1nnn[nH]1` (stereo partly drawn) [Compound 69, (2S)-methyl 4-(2-(1H-tetrazol-5-yl)ethylsulfonimidoyl)-2-aminobutanoate], at human recombinant GCL (read-out: GCL IC50), the IC50 was more than 2 mM. Further, the EC50 in the experiment with RKN cells was not below 1000 µM.

Take `COC(=O)[C@@H](N)CCS(=N)(=O)CCCc1ccccc1` (stereo partly drawn) [Compound 70, (2S)-methyl 2-amino-4-(3-phenylpropylsulfonimidoyl)butanoate]: the IC50 at human recombinant GCL (read-out: GCL IC50) fell in the range of 0.02 to 2 mM. Moreover, in the experiment with RKN cells, the EC50 is not below 1000 µM.

With `COC(=O)[C@@H](N)CCS(=N)(=O)CCCC1CC1` (stereo partly drawn) [Compound 71, (2S)-methyl 2-amino-4-(3-cyclopropylpropylsulfonimidoyl)butanoate], the IC50 at human recombinant GCL (read-out: GCL IC50) was in the range of 0.02 to 2 mM. In the experiment with RKN cells, the EC50 is not below 1000 µM.

Consider `CCCCOC(=O)[C@@H](N)CCS(=N)(=O)CCC(C)(C)C` (stereo partly drawn) [Compound 72, (2S)-butyl 2-amino-4-(3,3-dimethylbutylsulfonimidoyl)butanoate], for which the IC50 on human recombinant GCL (read-out: GCL IC50) lay in the range of 0.02 to 2 mM. Also, the EC50 with RKN cells was less than 1000 µM.

For the compound `CCCCS(=N)(=O)CC[C@H](N)C(=O)OCc1oc(=O)oc1C` (stereo partly drawn) [Compound 73, (2S)-(5-methyl-2-oxo-1,3-dioxol-4-yl)methyl 2-amino-4-(butylsulfonimidoyl) butanoate], the IC50 at human recombinant GCL (read-out: GCL IC50) is > 2 mM and 0.02 to 2 mM. For the same compound, in the experiment on RKN cells, the EC50 is not below 1000 µM.

`COC(=O)[C@@H](N)CCS(=N)(=O)CCC1CCCC1` (stereo partly shown) [Compound 74]: the IC50 on human recombinant GCL (read-out: GCL IC50) fell in the range of 0.02 to 2 mM. Also, the EC50 in the experiment with RKN cells was less than 1000 µM.

Regarding `COCCCS(=N)(=O)CC[C@H](N)C(=O)OC` (stereo partly shown) [Compound 75], the IC50 on human recombinant GCL (read-out: GCL IC50) is > 2 mM and 0.02 to 2 mM; on human recombinant GCL (read-out: GCL IC50 (mM), individual values in parentheses), 2.35 mM and 0.594 mM. Also, the EC50 with RKN cells was not below 1000 µM.

Turning to `COCCCCS(=N)(=O)CC[C@H](N)C(=O)OC` (stereo partly shown) [Compound 76], the IC50 on human recombinant GCL (read-out: GCL IC50) fell in the range of 0.02 to 2 mM. Moreover, the EC50 in the experiment with RKN cells is not below 1000 µM.

With `CCCCOC(=O)[C@@H](N)CCS(=N)(=O)CCC1CCCC1` (stereo partly shown) [Compound 77], the IC50 at human recombinant GCL (read-out: GCL IC50) was more than 2 mM. Also, the EC50 with RKN cells was less than 1000 µM.

In the case of `CCCCOC(=O)[C@@H](N)CCS(=N)(=O)CCC1CCCCC1` (stereo partly shown) [Compound 78], on human recombinant GCL (read-out: GCL IC50), the IC50 lay in the range of 0.02 to 2 mM. Moreover, in the experiment with RKN cells, the EC50 was less than 1000 µM.
